Source: ChEMBL document CHEMBL3826974, “Discovery of MK-8718, an HIV Protease Inhibitor Containing a Novel Morpholine Aspartate Binding Group” (ACS Med Chem Lett, 2016)

Tests used:
[1] = Clearance in rat at 1 mg/kg, iv or 5 mg/kg, po; format: ADME, organism-based; settings: in vivo
Protease = Protease (Human immunodeficiency virus 1, UniProt Q9YQ12); assay: Inhibition of wild-type HIV1 protease expressed in Escherichia coli assessed as reduction in product formation preincubated for 30 mins followed by addition of Val-Ser-Gln-Asn-(beta-naphtyl)Ala-Pro-Ile-Val as substrate measured after 1 hr
[2] = system: Human immunodeficiency virus 1; assay: Antiviral activity against HIV-1 infected in human MT4 cells assessed as inhibition of viral infection measured after 72 hrs; format: functional; settings: Human immunodeficiency virus 1, MT4, 72 h
[3] = Oral bioavailability in rat at 5 mg/kg; format: ADME, organism-based; settings: in vivo
[4] = Clearance in rat at 2 mg/kg, iv or 10 mg/kg, po; format: ADME, organism-based; settings: in vivo
[5] = Oral bioavailability in rat at 10 mg/kg; format: ADME, organism-based; settings: in vivo
[6] = system: Human immunodeficiency virus; assay: Inhibition of HIV protease at 1 uM

Chain of Protease (Q9YQ12 whole entry): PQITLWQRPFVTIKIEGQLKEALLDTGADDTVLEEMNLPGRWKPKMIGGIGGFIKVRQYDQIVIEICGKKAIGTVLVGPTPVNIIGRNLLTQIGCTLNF

| clearance [1] | IC50 (Protease) | bioavailability [3] | clearance [4] | bioavailability [5] | inhibition [6] | Structure (SMILES) | IC95 [2] |
| --- | --- | --- | --- | --- | --- | --- | --- |
| 11 mL/min/kg | 3.5 nM | 15% | – | – | – | COC(=O)N[C@H](C(=O)Nc1cncc(F)c1CC[C@@H]1CN[C@H](COC(=O)NCC(F)(F)F)CO1)C(c1ccccc1)c1ccccc1 | 94 nM |
| 61 mL/min/kg | 3.6 nM | – | – | – | – | COC(=O)N[C@H](C(=O)Nc1ccccc1CC[C@@H]1CN[C@H](COC(=O)NCc2ccccc2F)CO1)C(c1ccccc1)c1ccccc1 | 180 nM |
| – | 6.4 nM | – | 45 mL/min/kg | 30% | – | N[C@H](C(=O)Nc1cccc(F)c1CC[C@@H]1CN[C@H](COC(=O)NCC(F)(F)F)CO1)[C@@H](c1ccc(F)cc1)c1cccc(F)c1 | 75 nM |
| 36 mL/min/kg | 27 nM | 19% | – | – | – | COC(=O)N[C@H](C(=O)Nc1ccccc1CC[C@@H]1CN[C@H](COC(=O)NCC(F)(F)F)CO1)C(c1ccccc1)c1ccccc1 | 120 nM |
| 110 mL/min/kg | 9.7 nM | < 5% | – | – | – | COC(=O)N[C@H](C(=O)Nc1ccccc1CC[C@@H]1CN[C@H](COC(=O)N[C@@H]2CCc3ccccc32)CO1)C(c1ccccc1)c1ccccc1 | 370 nM |
| 36 mL/min/kg | 12 nM | 37% | – | – | – | COC(=O)N[C@H](C(=O)Nc1cccc(F)c1CC[C@@H]1CN[C@H](COC(=O)NCC(F)(F)F)CO1)C(c1ccccc1)c1ccccc1 | 95 nM |
| – | 3.1 nM | – | – | – | – | N[C@H](C(=O)Nc1cccc(F)c1CC[C@@H]1CN[C@H](COC(=O)NCC(F)(F)F)CO1)C(c1ccccc1)c1ccccc1 | 230 nM |
| – | – | – | – | – | 11% | COC(=O)N[C@H](C(=O)NCCCC1CNCCO1)C(c1ccccc1)c1ccccc1 (stereo partly drawn) | – |
| – | 8.2 nM | – | 22 mL/min/kg | 14% | – | N[C@H](C(=O)Nc1cccc(F)c1CC[C@@H]1CN[C@H](COC(=O)NCC(F)(F)F)CO1)[C@@H](c1ccc(F)cc1)c1cc(F)cc(F)c1 | 61 nM |
| 87 mL/min/kg | 3.5 nM | < 5% | – | – | – | COC(=O)N[C@H](C(=O)Nc1ccccc1CC[C@@H]1CN[C@H](COC(=O)N[C@H]2CCc3ccccc32)CO1)C(c1ccccc1)c1ccccc1 | 63 nM |
| – | 0.8 nM | – | 11 mL/min/kg | 25% | – | N[C@H](C(=O)Nc1cncc(F)c1CC[C@@H]1CN[C@H](COC(=O)NCC(F)(F)F)CO1)[C@@H](c1ccc(Cl)cc1)c1cc(F)cc(F)c1 | 49 nM |
| 60 mL/min/kg | 37 nM | 33% | – | – | – | COC(=O)N[C@H](C(=O)Nc1ccccc1CC[C@@H]1CN[C@H](COC(=O)NC(C)C)CO1)C(c1ccccc1)c1ccccc1 | 190 nM |
| – | 9.9 nM | – | 13 mL/min/kg | 59% | – | N[C@H](C(=O)Nc1cncc(F)c1CC[C@@H]1CN[C@H](COC(=O)NCC(F)(F)F)CO1)C(c1ccccc1)c1ccccc1 | 150 nM |
| – | 0.04 nM | – | – | – | – | COC(=O)N[C@H](C(=O)N[C@@H](Cc1ccccc1)[C@@H](O)CN(Cc1ccc(-c2ccccn2)cc1)NC(=O)[C@@H](NC(=O)OC)C(C)(C)C)C(C)(C)C [ATAZANAVIR] | 17 nM |
| 27 mL/min/kg | 6.1 nM | < 5% | – | – | – | COC(=O)N[C@H](C(=O)Nc1ccccc1CC[C@@H]1CN[C@H](COC(=O)NCc2ccccc2)CO1)C(c1ccccc1)c1ccccc1 | 200 nM |
| 49 mL/min/kg | 4.1 nM | 47% | – | – | – | COC(=O)N[C@H](C(=O)Nc1ccccc1CC[C@@H]1CN[C@H](COC(=O)NCc2ccc(F)cc2)CO1)C(c1ccccc1)c1ccccc1 | 170 nM |
| 33 mL/min/kg | 2.4 nM | 13% | – | – | – | COC(=O)N[C@H](C(=O)Nc1ccccc1CC[C@@H]1CN[C@H](COC(=O)NCc2ccc(Cl)s2)CO1)C(c1ccccc1)c1ccccc1 | 170 nM |
| 45 mL/min/kg | 3.4 nM | 17% | – | – | – | COC(=O)N[C@H](C(=O)Nc1ccccc1CC[C@@H]1CN[C@H](COC(=O)NCc2cccc(Cl)n2)CO1)C(c1ccccc1)c1ccccc1 | 150 nM |
| – | 2.4 nM | – | 16 mL/min/kg | 37% | – | N[C@H](C(=O)Nc1cncc(F)c1CC[C@@H]1CN[C@H](COC(=O)NCC(F)(F)F)CO1)[C@@H](c1ccc(F)cc1)c1cccc(F)c1 | 66 nM |
| 30 mL/min/kg | 20 nM | 16% | – | – | – | COC(=O)N[C@H](C(=O)Nc1ccccc1CC[C@@H]1CN[C@H](COC(N)=O)CO1)C(c1ccccc1)c1ccccc1 | 120 nM |
| – | 2.4 nM | – | – | – | – | N[C@H](C(=O)Nc1cncc(F)c1CC[C@@H]1CN[C@H](COC(=O)NCC(F)(F)F)CO1)[C@@H](c1ccc(F)cc1)c1cc(F)cc(F)c1 | 130 nM |
| 81 mL/min/kg | 14 nM | < 5% | – | – | – | COC(=O)N[C@H](C(=O)Nc1cnccc1CC[C@@H]1CN[C@H](COC(=O)NCC(F)(F)F)CO1)C(c1ccccc1)c1ccccc1 | 330 nM |
